Converted amounts (≈) assume the structure as drawn. Like-named read-outs stand apart in the source and are kept apart here.
Columns and labels:
physchem = details: 25 °C, thermodynamic from solid
[1] = Solubility in simulated intestinal fluids (FaSSIF/FeSSIF); details: 25 °C, thermodynamic from solid
[2] = 0.1N HCl, 1.0% DMSO, 24-hour incubation at ambient temperature, maximum theoretical 100 μM, first value of the cell
[3] = 1×PBS buffer (pH 7.4), 1.0% DMSO, 24-hour incubation at ambient temperature, maximum theoretical 100 μM, second value of the cell
[4] = fasted state simulated intestinal fluid (FaSSIF), fassif
[5] = fed state simulated intestinal fluid (FeSSIF), fessif

Row | Compound | pH 2 solubility [2] [μM] | pH 7 solubility [3] [μM] | solubility (physchem; fassif) [µg/mL] | pH 2 solubility (pH 2) | pH 7 solubility (pH 7.4) | solubility (physchem; fessif) [µg/mL] | solubility [1, 4] [µg/mL] | solubility [1, 5] [µg/mL]
1 | CN(CC(=O)OCOP(=O)(O)O)C(=O)N(c1nn(CC(F)(F)F)c2c(-c3ccc(C#CC(C)(C)S(C)(=O)=O)nc3[C@H](Cc3cc(F)cc(F)c3)NC(=O)Cn3nc(C(F)(F)F)c4c3C(F)(F)[C@@H]3C[C@H]43)ccc(Cl)c12)S(C)(=O)=O [Compound 84, (phosphonooxy)methyl N-((4-chloro-7-(2-((S)-1-(2-((3bS,4aR)-5,5-difluoro-3-(trifluoromethyl)-3b,4,4a,5-tetrahydro-1H-cyclopropa[3,4]cyclopenta[1,2-c]pyrazol-1-yl)acetamido)-2-(3,5-difluorophenyl)ethyl)-6-(3-methyl-3-(methylsulfonyl)but-1-yn-1-yl)pyridin-3-yl)-1-(2,2,2-trifluoroethyl)-1H-indazol-3-yl)(methylsulfonyl)carbamoyl)-N-methylglycinate] | 5 | 16 | 154 (≈ 129 µM) |  |  |  |  | 
2 | CC(C)(C#Cc1ccc(-c2ccc(Cl)c3c(N(C(=O)OCCNC(=O)OCOP(=O)(O)O)S(C)(=O)=O)nn(CC(F)(F)F)c23)c([C@H](Cc2cc(F)cc(F)c2)NC(=O)Cn2nc(C(F)(F)F)c3c2C(F)(F)[C@@H]2C[C@H]32)n1)S(C)(=O)=O [Compound 137, 2-((((phosphonooxy)methoxy)carbonyl)amino)ethyl (4-chloro-7-(2-((S)-1-(2-((3bS,4aR)-5,5-difluoro-3-(trifluoromethyl)-3b,4,4a,5-tetrahydro-1H-cyclopropa[3,4]cyclopenta[1,2-c]pyrazol-1-yl)acetamido)-2-(3,5-difluorophenyl)ethyl)-6-(3-methyl-3-(methylsulfonyl)but-1-yn-1-yl)pyridin-3-yl)-1-(2,2,2-trifluoroethyl)-1H-indazol-3-yl)(methylsulfonyl)carbamate] | 1 | 85 | 950 (≈ 786 µM) |  |  |  |  | 
3 | CN(CCOC(=O)N(c1nn(CC(F)(F)F)c2c(-c3ccc(C#CC(C)(C)S(C)(=O)=O)nc3[C@H](Cc3cc(F)cc(F)c3)NC(=O)Cn3nc(C(F)(F)F)c4c3C(F)(F)[C@@H]3C[C@H]43)ccc(Cl)c12)S(C)(=O)=O)C(=O)OCOP(=O)(O)O [Compound 133, (phosphonooxy)methyl (2-(((4-chloro-7-(2-((S)-1-(2-((3bS,4aR)-5,5-difluoro-3-(trifluoromethyl)-3b,4,4a,5-tetrahydro-1H-cyclopropa[3,4]cyclopenta[1,2-c]pyrazol-1-yl)acetamido)-2-(3,5-difluorophenyl)ethyl)-6-(3-methyl-3-(methylsulfonyl)but-1-yn-1-yl)pyridin-3-yl)-1-(2,2,2-trifluoroethyl)-1H-indazol-3-yl)(methylsulfonyl)carbamoyl)oxy)ethyl)(methyl)carbamate] | 1 | 81 | 194 (≈ 159 µM) |  |  |  |  | 
4 | CC(C)(C#Cc1ccc(-c2ccc(Cl)c3c(N(C(=O)OCCN(CCC(=O)O)C(=O)OCOP(=O)(O)O)S(C)(=O)=O)nn(CC(F)(F)F)c23)c([C@H](Cc2cc(F)cc(F)c2)NC(=O)Cn2nc(C(F)(F)F)c3c2C(F)(F)[C@@H]2C[C@H]32)n1)S(C)(=O)=O [Compound 135, 3-((2-(((4-chloro-7-(2-((S)-1-(2-((3bS,4aR)-5,5-difluoro-3-(trifluoromethyl)-3b,4,4a,5-tetrahydro-1H-cyclopropa[3,4]cyclopenta[1,2-c]pyrazol-1-yl)acetamido)-2-(3,5-difluorophenyl)ethyl)-6-(3-methyl-3-(methylsulfonyl)but-1-yn-1-yl)pyridin-3-yl)-1-(2,2,2-trifluoroethyl)-1H-indazol-3-yl)(methylsulfonyl)carbamoyl)oxy)ethyl)(((phosphonooxy)methoxy)carbonyl)amino)propa noic acid] | 1 | 100 | 1290 (≈ 1010 µM) |  |  |  |  | 
5 | C[C@@H](C(=O)O)N(CCOC(=O)N(c1nn(CC(F)(F)F)c2c(-c3ccc(C#CC(C)(C)S(C)(=O)=O)nc3[C@H](Cc3cc(F)cc(F)c3)NC(=O)Cn3nc(C(F)(F)F)c4c3C(F)(F)[C@@H]3C[C@H]43)ccc(Cl)c12)S(C)(=O)=O)C(=O)OCOP(=O)(O)O [Compound 132, N-(2-(((4-chloro-7-(2-((S)-1-(2-((3bS,4aR)-5,5-difluoro-3-(trifluoromethyl)-3b,4,4a,5-tetrahydro-1H-cyclopropa[3,4]cyclopenta[1,2-c]pyrazol-1-yl)acetamido)-2-(3,5-difluorophenyl)ethyl)-6-(3-methyl-3-(methylsulfonyl)but-1-yn-1-yl)pyridin-3-yl)-1-(2,2,2-trifluoroethyl)-1H-indazol-3-yl)(methylsulfonyl)carbamoyl)oxy)ethyl)-N-(((phosphonooxy)methoxy)carbonyl)-L-alanine] | 1 | 79 | 1630 (≈ 1270 µM) |  |  |  |  | 
6 | CC(C)(C#Cc1ccc(-c2ccc(Cl)c3c(N(C(=O)O[C@H](CNC(=O)OCOP(=O)(O)O)CC(=O)O)S(C)(=O)=O)nn(CC(F)(F)F)c23)c([C@H](Cc2cc(F)cc(F)c2)NC(=O)Cn2nc(C(F)(F)F)c3c2C(F)(F)[C@@H]2C[C@H]32)n1)S(C)(=O)=O [Compound 136, (S)-3-(((4-chloro-7-(2-((S)-1-(2-((3bS,4aR)-5,5-difluoro-3-(trifluoromethyl)-3b,4,4a,5-tetrahydro-1H-cyclopropa[3,4]cyclopenta[1,2-c]pyrazol-1-yl)acetamido)-2-(3,5-difluorophenyl)ethyl)-6-(3-methyl-3-(methylsulfonyl)but-1-yn-1-yl)pyridin-3-yl)-1-(2,2,2-trifluoroethyl)-1H-indazol-3-yl)(methylsulfonyl)carbamoyl)oxy)-4-((((phosphonooxy)methoxy)carbonyl)amino)butanoic acid] |  |  | 1490 (≈ 1180 µM) | 3/57 μM | 3/57 μM | 2910 (≈ 2300 µM) |  | 
7 | CN(CCN(C)C(=O)N(c1nn(CC(F)(F)F)c2c(-c3ccc(C#CC(C)(C)S(C)(=O)=O)nc3[C@H](Cc3cc(F)cc(F)c3)NC(=O)Cn3nc(C(F)(F)F)c4c3C(F)(F)[C@@H]3C[C@H]43)ccc(Cl)c12)S(C)(=O)=O)C(=O)OCOP(=O)(O)O [Compound 83, (phosphonooxy)methyl (2-(3-(4-chloro-7-(2-((S)-1-(2-((3bS,4aR)-5,5-difluoro-3-(trifluoromethyl)-3b,4,4a,5-tetrahydro-1H-cyclopropa[3,4]cyclopenta[1,2-c]pyrazol-1-yl)acetamido)-2-(3,5-difluorophenyl)ethyl)-6-(3-methyl-3-(methylsulfonyl)but-1-yn-1-yl)pyridin-3-yl)-1-(2,2,2-trifluoroethyl)-1H-indazol-3-yl)-1-methyl-3-(methylsulfonyl)ureido)ethyl)(methyl)carbamate] |  |  | 1950 (≈ 1580 µM) | 1/61 μM | 1/61 μM | 500 (≈ 404 µM) |  | 
8 | CN(Cc1ccccc1OP(=O)(O)O)C(=O)N(c1nn(CC(F)(F)F)c2c(-c3ccc(C#CC(C)(C)S(C)(=O)=O)nc3[C@H](Cc3cc(F)cc(F)c3)NC(=O)Cn3nc(C(F)(F)F)c4c3C(F)(F)[C@@H]3C[C@H]43)ccc(Cl)c12)S(C)(=O)=O [Compound 67, 2-((3-(4-chloro-7-(2-((S)-1-(2-((3bS,4aR)-5,5-difluoro-3-(trifluoromethyl)-3b,4,4a,5-tetrahydro-1H-cyclopropa[3,4]cyclopenta[1,2-c]pyrazol-1-yl)acetamido)-2-(3,5-difluorophenyl)ethyl)-6-(3-methyl-3-(methylsulfonyl)but-1-yn-1-yl)pyridin-3-yl)-1-(2,2,2-trifluoroethyl)-1H-indazol-3-yl)-1-methyl-3-(methylsulfonyl)ureido)methyl)phenyl dihydrogen phosphate] |  |  | 536 | 2/79 μM | 2/79 μM | 707 |  | 
9 | CC(C)(C#Cc1ccc(-c2ccc(Cl)c3c(N(C(=O)N[C@@H](CC(=O)O)C(=O)O)S(C)(=O)=O)nn(CC(F)(F)F)c23)c([C@H](Cc2cc(F)cc(F)c2)NC(=O)Cn2nc(C(F)(F)F)c3c2C(F)(F)[C@@H]2C[C@H]32)n1)S(C)(=O)=O [Compound 69, ((4-chloro-7-(2-((S)-1-(2-((3bS,4aR)-5,5-difluoro-3-(trifluoromethyl)-3b,4,4a,5-tetrahydro-1H-cyclopropa[3,4]cyclopenta[1,2-c]pyrazol-1-yl)acetamido)-2-(3,5-difluorophenyl)ethyl)-6-(3-methyl-3-(methylsulfonyl)but-1-yn-1-yl)pyridin-3-yl)-1-(2,2,2-trifluoroethyl)-1H-indazol-3-yl)(methylsulfonyl)carbamoyl)-L-aspartic acid] | 1 | 81 |  |  |  |  | 1580 (≈ 1400 µM) | 247 (≈ 219 µM)
10 | CC(C)(C#Cc1ccc(-c2ccc(Cl)c3c(N(C(=O)N[C@@H](CO)C(=O)O)S(C)(=O)=O)nn(CC(F)(F)F)c23)c([C@H](Cc2cc(F)cc(F)c2)NC(=O)Cn2nc(C(F)(F)F)c3c2C(F)(F)[C@@H]2C[C@H]32)n1)S(C)(=O)=O [Compound 58, ((4-chloro-7-(2-((S)-1-(2-((3bS,4aR)-5,5-difluoro-3-(trifluoromethyl)-3b,4,4a,5-tetrahydro-1H-cyclopropa[3,4]cyclopenta[1,2-c]pyrazol-1-yl)acetamido)-2-(3,5-difluorophenyl)ethyl)-6-(3-methyl-3-(methylsulfonyl)but-1-yn-1-yl)pyridin-3-yl)-1-(2,2,2-trifluoroethyl)-1H-indazol-3-yl)(methylsulfonyl)carbamoyl)-L-serine] | 1 | 8 |  |  |  |  | 813 (≈ 740 µM) | 120 (≈ 109 µM)

Reference: US12404262B2 (priority 2021, dated 2025)
